The values below are quoted from earlier work in patent US7045126B2, “Histone deacetylase-8 proteins, nucleic acids, and methods for use” (Applera Corporation, priority 1999, dated 2006).

One data set relates to tumor. The conditions noted are these: tumor bearing nude mice.
The subject of data set [1] is acute promyelocytic leukemia (APL). To be noted: incl. retinoic acid resistant forms.
In a further data set the test system is cell cycle. The conditions noted are these: variety of systems.

Consider `Nc1ccccc1NC(=O)c1ccc(CNC(=O)OCc2cccnc2)cc1` [MS-27275], for which the histone hyperacetylation result in the data set with histones is recorded as “induces histone hyperacetylation”. Moreover, the “inhibition of tumor growth” value in the data set with tumor was “demonstrates efficacy in inhibiting tumor growth”.
As for `CCCC(=O)[O-].[Na+]` [sodium butyrate], the “therapeutic use to target transcription in APL” value in data set [1] is listed as “successful even in retinoic acid resistant forms of the disease”.
Turning to `CC(/C=C/C(=O)NO)=C\[C@@H](C)C(=O)c1ccc(N(C)C)cc1` [trichostatin A], the “cell cycle arrest and/or differentiation” value in the data set on cell cycle is given as “induce cell cycle arrest and/or differentiation”.
